Experimental findings from US20170119776A1, “CHIRAL 2,5-DISUBSTITUTED CYCLOPENTANECARBOXYLIC ACID DERIVATIVES AND USE THEREOF” (BAYER PHARMA AKTIENGESELLSCHAFT, priority 2014, published 2017) are described below.

Structures are written as SMILES.

Format in all cases: biochemical
Assay [1] has as its target T1, human macrophage elastase (HME/hMMP-12) (Homo sapiens, UniProt P39900).
T1 construct: 0.5 nM HME; purchased R&D Systems 917-MP
Briefly: In vitro HME inhibition test (standard / high-sensitivity), without BSA. Particulars: absence of serum albumin (BSA). The source says:
The activity of the compounds according to the invention towards HME (MMP-12) is ascertained in an in vitro inhibition test. The HME-mediated amidolytic cleavage of a suitable peptide substrate leads herein to a fluorescent light increase. The signal intensity of the fluorescent light is directly proportional to the enzyme activity. The active concentration of a test compound at which half of the enzyme is inhibited (50% signal intensity of the fluorescent light) is given as IC50 value.
In a 384 hole microtiter plate, in a test volume of in total 41 μl of the test buffer (0.1 M HEPES pH 7.4, 0.15 M NaCl, 0.03 M CaCl2, 0.004 mM ZnCl2, […], 0.005% Brij®), the enzyme (0.5 nM HME; R&D Systems, 917-MP, autocatalytic activation according to the manufacturer's instructions) and the intramolecularly quenched substrate [5 μM Mca-Pro-Leu-Gly-Leu-Glu-Glu-Ala-Dap(Dnp)-NH2; Bachem, M-2670] are incubated in the absence and presence of the test substance (as solution in DMSO) for two hours at 37° C. The fluorescent light intensity of the test batches is measured (excitation 323 nm, emission 393 nm). The IC50 values are ascertained by plotting the fluorescent light intensity against the active ingredient concentration.
If subnanomolar IC values are produced for high potent test substances in the standard HME inhibition test described above, then a modified test is used for their more precise determination. Here, a ten-fold lower enzyme concentration is used (final concentration e.g. 0.05 nM), in order to achieve an increased sensitivity of the test. The incubation time of the test is accordingly chosen to be longer (e.g. 16 hours).
Table 1 below gives the IC50 values from these HME inhibition tests for the working examples of the present invention and also for two structurally related comparison compounds from the prior art (as racemate or separated enantiomers)→(sometimes as average values from several independent individual determinations and rounded to two significant places). The IC50 values were determined for racemates and enantiomers from differently generated DMSO stock solutions. Whereas an automatically created DMSO stock solution from the internal substance logistics was used for racemates by means of a standard method, for enantiomers and for a more precise direct comparison of the enantiomers with one another, in each case a freshly produced, manually prepared DMSO stock solution was used.

Assay [2] has as its target T2, MMP-3 (Homo sapiens, UniProt P08254).
T2 construct: purchased R&D Systems 513-MP
Briefly: In vitro MMP-3 inhibition test. The source says:
(§1) The activity strength of the compounds according to the invention towards other MMPs (and therefore their selectivity) is likewise ascertained in in vitro inhibition tests. The MMP-mediated amidolytic cleavage of a suitable peptide substrate also leads here to a fluorescent light increase. The signal intensity of the fluorescent light is directly proportional to the enzyme activity. The active concentration of a test compound at which half of the enzyme is inhibited (50% signal intensity of the fluorescent light) is given as IC50 value.
Recombinant MMP-3 (R&D Systems, 513-MP) is chemically activated in accordance with the manufacturer's instructions using APMA. 1 μl of the test compound to be analysed (as a solution in DMSO, suitable concentrations e.g. 1 nM to 30 μM) is pipetted into 24 μl of activated enzyme (final concentration e.g. 2 nM) in reaction buffer (50 mM Tris/HCl pH 7.5, 10 mM CaCl2, 150 mM NaCl, 0.05% Brij®-35) in a white 384-hole microtiter plate (MTP). The enzymatic reaction is started by adding the intramolecularly quenched substrate Mca-Arg-Pro-Lys-Pro-Val-Glu-Nval-Trp-Arg-Lys(Dnp)-NH2 (final concentration e.g. 10 μM; R&D Systems, ES-002), such that a total test volume of 50 μl results. The progress of the MMP-3 reaction is measured by measuring the fluorescence intensity (excitation 320 nm, emission 410 nm) over a suitable period (e.g. over 120 min at a temperature of 32° C.).
(§2) The IC50 values were determined for racemates and enantiomers from differently generated DMSO stock solutions. Whereas an automatically produced DMSO stock solution from the internal substance logistics was used for racemates by means of a standard method, in the case of enantiomers a freshly produced, manually prepared DMSO stock solution was used in each case for a more precise direct comparison of the enantiomers with one another.

Assay [3] addresses T3, MMP-14 (Homo sapiens, UniProt P50281).
T3 construct: purchased R&D Systems 918-MP
In words: In vitro MMP-14 inhibition test.
From the text: as §1
Recombinant MMP-14 (R&D Systems, 918-MP) is enzymatically activated in accordance with the manufacturer's instructions using recombinant furin (R&D Systems, 1503-SE). 1 μl of the test compound to be analysed (as a solution in DMSO, suitable concentrations e.g. 1 nM to 30 μM) is pipette into 24 μl of activated enzyme (final concentration e.g. 0.5 nM) in reaction buffer (50 mM Tris/HCl pH 7.5, 10 mM CaCl2, 150 mM NaCl, 0.05% Brij®-35) in a white 384-hole microtiter plate (MTP). The enzymatic reaction is started by adding the intramolecularly quenched substrate Mca-Lys-Pro-Leu-Gly-Leu-Dpa(Dnp)-Ala-Arg-NH2 (final concentration e.g. 5 μM; R&D Systems, ES-010), such that a total test volume of 50 μl results. The progress of the MMP-14 reaction is measured by measuring the fluorescence intensity (excitation 320 nm, emission 410 nm) over a suitable period (e.g. over 120 min at a temperature of 32° C.).
as §2

T1 sequence (P39900 106-470): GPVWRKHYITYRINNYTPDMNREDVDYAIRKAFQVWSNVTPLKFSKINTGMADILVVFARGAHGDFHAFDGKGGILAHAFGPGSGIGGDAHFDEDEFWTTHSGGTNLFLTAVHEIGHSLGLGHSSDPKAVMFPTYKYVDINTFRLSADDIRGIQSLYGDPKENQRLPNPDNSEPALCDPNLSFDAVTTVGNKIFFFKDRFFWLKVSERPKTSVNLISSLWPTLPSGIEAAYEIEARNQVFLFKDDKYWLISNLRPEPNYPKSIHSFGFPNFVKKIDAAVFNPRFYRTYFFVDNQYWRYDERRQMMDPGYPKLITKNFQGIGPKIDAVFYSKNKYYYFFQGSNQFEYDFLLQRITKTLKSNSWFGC
T2 sequence (P08254 100-477): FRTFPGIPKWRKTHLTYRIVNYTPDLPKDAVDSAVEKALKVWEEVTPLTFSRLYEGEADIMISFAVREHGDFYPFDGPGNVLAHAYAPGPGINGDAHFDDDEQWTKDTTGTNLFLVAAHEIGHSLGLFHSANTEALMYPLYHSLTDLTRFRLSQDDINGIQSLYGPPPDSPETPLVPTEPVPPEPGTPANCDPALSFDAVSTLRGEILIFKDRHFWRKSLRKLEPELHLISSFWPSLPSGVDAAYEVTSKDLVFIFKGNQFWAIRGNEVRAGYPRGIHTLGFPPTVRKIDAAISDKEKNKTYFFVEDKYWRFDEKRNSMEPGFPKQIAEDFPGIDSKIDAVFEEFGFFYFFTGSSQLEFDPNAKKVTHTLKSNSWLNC

As a reminder, the IC50 is the point on the concentration scale where inhibition reaches its midpoint. For `O=C(O)[C@H]1[C@H](Cn2nnc3ccccc3c2=O)CC[C@@H]1C(=O)c1ccc(-c2ccc(Cl)cc2)cc1` (racemic) [Comparative Example A-1, (1RS,2RS,5SR)-2-[(4′-chlorobiphenyl-4-yl)carbonyl]-5-[(4-oxo-1,2,3-benzotriazin-3(4H)-yl)methyl]cyclopentanecarboxylic acid (racemate)], the IC50 in assay [1] was 0.043 nM; in assay [2] it was 49 nM; in assay [3], 2.9 nM.
As for `CCCCCOc1ccc(C(=O)CC(CCn2nnc3ccccc3c2=O)C(=O)O)cc1` (racemic) [Comparative Example B-1, (+/−)-4-Oxo-2-[2-(4-oxo-1,2,3-benzotriazin-3(4H)-yl)ethyl]-4-[4-(pentyloxy)phenyl]butanoic acid (racemate)], the concentration for half-maximal inhibition (IC50) stood at 1.5 nM in assay [1], 9150 nM in assay [2] and 3800 nM in assay [3].
As to `O=C(O)[C@H]1[C@H](Cn2nnc3ccccc3c2=O)CC[C@@H]1C(=O)c1ccc(OCc2ccccc2)cc1` (racemic) [Example 1, (+/−)-(1RS,2RS,5SR)-2-[4-(Benzyloxy)benzoyl]-5-[(4-oxo-1,2,3-benzotriazin-3(4H)-yl)methyl]cyclopentanecarboxylic acid (racemate)], the results for the IC50 in assay [1], in assay [2] and in assay [3] were 0.059 nM, 390 nM and 27 nM, respectively.
On to `CCCCCOc1ccc(C(=O)CC(CCn2nnc3ccccc3c2=O)C(=O)O)cc1` (single isomer, unassigned; enantiomer 1) [Comparative Example B-2, (+)-4-Oxo-2-[2-(4-oxo-1,2,3-benzotriazin-3(4H)-yl)ethyl]-4-[4-(pentyloxy)phenyl]butanoic acid (enantiomer 1)], for which the results for the IC50 in assay [1], in assay [2] and in assay [3] were 1.6 nM, 6600 nM and 1300 nM, respectively.
Consider `O=C(O)[C@@H]1[C@@H](Cn2nnc3ccccc3c2=O)CC[C@H]1C(=O)c1ccc(-c2ccc(Cl)cc2)cc1` (single isomer, unassigned; enantiomer 2) [Comparative Example A-3, (1RS,2RS,5SR)-2-[(4′-Chlorobiphenyl-4-yl)carbonyl]-5-[(4-oxo-1,2,3-benzotriazin-3(4H)-yl)methyl]cyclopentanecarboxylic acid (enantiomer 2)], for which the IC50 in assay [1] was found to be 0.018 nM; in assay [2], 22.5 nM; in assay [3], 1.2 nM.
With `O=C(O)[C@H]1[C@H](Cn2nnc3ccccc3c2=O)CC[C@@H]1C(=O)c1ccc(OCc2ccccc2)cc1` [Example 2, (+)-(1S,2S,5R)-2-[4-(Benzyloxy)benzoyl]-5-[(4-oxo-1,2,3-benzotriazin-3(4H)-yl)methyl]cyclopentanecarboxylic acid], the figures for the IC50 in assay [1], in assay [2] and in assay [3] were 0.071 nM, 175 nM and 15 nM, respectively.
